Assay results as given in ChEMBL document CHEMBL2010786, “Design and synthesis of benzenesulfonamide derivatives as potent anti-influenza hemagglutinin inhibitors” (ACS Med Chem Lett, 2011).
Values after ≈ are worked out from the molar mass of the structure shown.

Assays:
[1] = Oral bioavailability in CD1 mouse at 10 mg/kg; format: ADME, organism-based; conditions: in vivo
[2] = Solubility of the compound in phosphate buffer at pH 6.5; format: physicochemical

| Structure (SMILES) | bioavailability [1] | solubility [2] |
| --- | --- | --- |
| CC1(C)C[C@H](O)C[C@](C)(CNc2cc(Cl)cc(S(N)(=O)=O)c2)C1 | 55% |  |
| CC1(C)C[C@H](O)C[C@](C)(CNc2ccc(Cl)c(S(N)(=O)=O)c2)C1 | 70% |  |
| CC1(C)C[C@H](O)C[C@](C)(CNc2cccc(S(N)(=O)=O)c2)C1 (relative stereo) | 75% | 141 µg/mL (≈ 432 µM) |
